The nature of experiment [1]: Inhibition of BRD BD2 (unknown origin) by alpha screen assay. On the set-up: species or system Homo sapiens.
The species entered for experiment [2] is Homo sapiens. Nature of the experiment: Selectivity ratio of IC50 for BRD BD1 (unknown origin) to IC50 for BRD BD2 (unknown origin).
The nature of experiment [3]: Inhibition of BRD BD1 (unknown origin) by alpha screen assay. On the set-up: species or system Homo sapiens. On the technique in general: In Alpha technology, singlet oxygen from a donor bead excites a nearby acceptor bead.
Experiment [4] addresses Mitogen-activated protein kinase 14 (Homo sapiens, UniProt Q16539).
Description: Binding affinity to p38 alpha (unknown origin) assessed as dissociation constant by DiscoverX kinomescan method
The species named for experiment [5] is Homo sapiens. The experiment can be described thus: Selectivity ratio of IC50 for BRD4 BD2 (unknown origin) to IC50 for BRD4 BD1 (unknown origin).
Experiment [6] concerns the target T1, Bromodomain-containing protein 4 (Homo sapiens, UniProt O60885). Nature of the experiment: Inhibition of his 6 tagged BRD4 D1 (unknown origin) expressed in Escherichia coli BL21 (DE3) by fluorescence anisotropy assay. (Polarisation of emitted light reports the rotation of a fluorescent probe.)
The species entered for experiment [7] is Homo sapiens. The experiment can be described thus: Selectivity ratio of Kd for BRD2 BD1 (unknown origin) to Kd for BRD2 BD2 (unknown origin).
The species named for experiment [8] is Homo sapiens. Nature of the experiment: Selectivity ratio of Kd for BRD4 BD1 (unknown origin) to Kd for BRD4 BD2 (unknown origin).
Experiment [9] deals with T2, Bromodomain-containing protein 2 (Homo sapiens, UniProt P25440). The experiment can be described thus: Binding affinity to BDR2- BD2 (unknown origin) by TR-FRET assay.
Experiment [10] addresses T2, Bromodomain-containing protein 2. The experiment can be described thus: Binding affinity to BDR2-BD1 (unknown origin) by TR-FRET assay.
The target of experiment [11] is T1, Bromodomain-containing protein 4. The experiment can be described thus: Binding affinity to human BRD4 BD1 assessed as inhibition constant incubated for 1 hr by competitive binding assay.
The target is the same in experiment [12]. The experiment can be described thus: Binding affinity to human BRD4 BD2 assessed as inhibition constant incubated for 1 hr by competitive binding assay.
For experiment [13], the species on record is Homo sapiens. The experiment can be described thus: Selectivity ratio of Ki for human BRD4 BD2 to Ki for BRD4 BD1.

pIC50, pKd, pKi: −log10 of the molar value.

The values below come from ChEMBL document CHEMBL5241103, “Progress in the development of domain selective inhibitors of the bromo and extra terminal domain family (BET) proteins” (Eur J Med Chem, 2021).

T2 sequence (P25440 whole entry): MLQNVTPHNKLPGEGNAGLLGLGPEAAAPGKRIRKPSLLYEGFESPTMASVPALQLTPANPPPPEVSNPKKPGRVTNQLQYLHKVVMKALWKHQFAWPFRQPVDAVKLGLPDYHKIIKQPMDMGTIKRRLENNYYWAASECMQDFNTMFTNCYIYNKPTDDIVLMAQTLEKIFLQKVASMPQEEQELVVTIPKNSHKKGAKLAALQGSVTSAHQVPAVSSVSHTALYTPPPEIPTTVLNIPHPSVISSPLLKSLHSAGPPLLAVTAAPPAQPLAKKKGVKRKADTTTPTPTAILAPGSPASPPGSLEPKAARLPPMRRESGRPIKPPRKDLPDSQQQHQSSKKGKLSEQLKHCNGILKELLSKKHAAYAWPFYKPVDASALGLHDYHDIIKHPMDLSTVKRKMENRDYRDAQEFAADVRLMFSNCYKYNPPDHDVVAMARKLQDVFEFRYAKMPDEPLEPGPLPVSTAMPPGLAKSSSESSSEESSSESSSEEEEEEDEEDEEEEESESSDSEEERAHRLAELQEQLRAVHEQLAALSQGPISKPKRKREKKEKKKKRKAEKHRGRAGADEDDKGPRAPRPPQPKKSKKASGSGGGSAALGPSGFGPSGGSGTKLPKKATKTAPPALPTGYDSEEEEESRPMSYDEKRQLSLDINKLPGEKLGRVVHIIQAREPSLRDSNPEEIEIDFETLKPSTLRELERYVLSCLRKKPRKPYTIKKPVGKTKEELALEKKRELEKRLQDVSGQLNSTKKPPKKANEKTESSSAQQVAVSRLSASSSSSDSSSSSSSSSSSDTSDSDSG
Sequence of Mitogen-activated protein kinase 14 (Q16539 whole entry): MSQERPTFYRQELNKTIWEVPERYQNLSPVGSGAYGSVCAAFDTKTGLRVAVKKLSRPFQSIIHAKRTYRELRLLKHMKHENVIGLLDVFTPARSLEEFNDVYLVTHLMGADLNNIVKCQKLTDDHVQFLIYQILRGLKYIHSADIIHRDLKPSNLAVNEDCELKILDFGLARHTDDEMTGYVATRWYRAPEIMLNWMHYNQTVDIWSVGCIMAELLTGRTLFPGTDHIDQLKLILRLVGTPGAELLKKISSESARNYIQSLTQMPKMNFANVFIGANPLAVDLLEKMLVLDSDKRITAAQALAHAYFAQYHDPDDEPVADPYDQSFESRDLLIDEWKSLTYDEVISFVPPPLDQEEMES

With `COc1cc(OC)c2c(=O)[nH]c(-c3cc(C)c(OCCN4CCCC4)c(C)c3)nc2c1`, the figures for the pIC50 in experiment [1] and in experiment [3] were 7.70 and 5.94, respectively. Further, the Ratio IC50 in the experiment filed under Homo sapiens [2] came to 40.
As for `Cc1cc(C)cc(Oc2nccc(-c3c(-c4ccc(C(F)(F)F)cc4)ncn3C3CCN(CCN)CC3)n2)c1`, the pKd (commonly −log10 of the Kd, conventionally taken in molar units) in experiment [4] was 5.72. The Ratio IC50 in the experiment filed under Homo sapiens [5] worked out at 9. In addition, in [6], the pIC50 (commonly the negative decadic logarithm of the IC50, by convention in mol/L) is 6.89.
As to `CC(=O)N1c2ccc(-c3cc[nH]n3)cc2[C@H](Nc2ccc(C#N)cc2)C[C@@H]1C`, the results for the Ratio in the experiment listed under Homo sapiens [7] and in the experiment listed under Homo sapiens [8] were 80 and 152, respectively. The pKd is 8.22 in experiment [9] and 6.31 in experiment [10].
With `COC(=O)c1ccc(N[C@@H]2C[C@H](C)N(C(C)=O)c3ccc(-c4cccc(NC(C)=O)c4)cc32)cc1`, the Ratio in the experiment filed under Homo sapiens [7] is 67. Besides, the pKd in experiment [9] was 7.85; in experiment [10], 6.03.
As to `COc1ccc(NC(=O)c2ccc(NC3=C(C)C(=O)CC3)c(Cl)c2)cc1`, the pKi – broadly, the Ki on a negative log10 scale, so that one unit is a factor of ten – is 7.11 in experiment [11] and 6.14 in [12]. Also, the Ratio Ki in the experiment listed under Homo sapiens [13] came to 9.
